Results as given in patent publication US8188148B2, “Substituted 1,3-diphenylpropane derivatives, preparations and uses thereof” (Genfit, priority 2006, dated 2012).

Experiments:
C57BI6 mouse = test: In vivo evaluation on C57BI6 mouse: body weight and plasma lipids; details: C57BI6 mouse, 3, 10, and 30 mpk per os, 14 days, vs control
Experimental: The effect of the compounds according to the invention is evaluated in vivo on the C57BI6 mouse by measuring the body weight evolution, the plasma HDL cholesterol and triglyceride levels, after 14 days of a per os treatment with the compounds according to the invention.
Female C57BI6 mice were kept on a 12 hour/12 hour light/dark cycle at a constant temperature of 20±3° C. After a one week acclimatization period, the mice were weighed and divided into groups of 6 animals selected such as the distribution of body weight and of plasma lipid rate, determined before the experiment, was uniform. The tested compounds were suspended in carboxymethylcellulose (Sigma C4888) and administered to the animals by gastric gavage, once a day for 14 days at the chosen doses. The animals had free access to food and water (standard diet). Taking of food and weight gain are recorded throughout the experiment. At the end of the experiment, after a 4 hour fast, the animals were anesthetized and a blood sample was taken on anticoagulant (EDTA). Then the mice were weighed and euthanized. The plasma was separated by centrifugation at 3000 rotations/minute for 20 minutes. The samples were kept at +4° C. Hepatic tissue samples were removed, frozen in liquid nitrogen, and then kept at −80° C. for later analyses.
Low-density lipoproteins (VLDL and LDL) are precipitated by Phosphotungstate. The precipitate is eliminated by centrifugation. HDL-cholesterol present in the supernatant is measured by enzymatic assays (bioMérieux-Lyon-France) in accordance with the provider's recommendations.
Plasma triglyceride concentrations were measured by enzymatic assays (bioMérieux-Lyon-France) according to the provider's recommendations.

ApoE2/E2 mouse = test: In vivo evaluation on ApoE2/E2 mouse: body weight and plasma lipids; details: E2/E2 mouse, 5, 10, and 50 mpk per os, 8 days, vs control
Experimental: The dyslipidemic E2/E2 mouse's body weight, rates of total cholesterol, triglycerides and of plasma free fatty acids are measured after 8 days of a per os treatment with the compounds according to the invention.
The murine model used is the ApoE2/E2 mouse, a transgenic mouse having the human apolipoprotein E isoform E2 (Sullivan P M et al., 1998). In human, this apolipoprotein, a constituent of low and very low density lipoproteins (LDL-VLDL), is present in three isoforms E2, E3, and E4. The E2 form presents a mutation affecting the amino acid of position 158, which considerably weakens the affinity of this protein for the receptors to LDL receptors. Accordingly, the VLDL clearance is nearly non-existent. An accumulation of low-density lipoproteins then occurs along with a mixed hyperlipidemia known as of type III (high cholesterol and triglycerides rates).
The ApoE2/E2 transgenic mice were kept on a 12 hour/12 hour light/dark cycle at a constant temperature of 20±3° C. After a one week acclimatization period, the mice were weighed and divided into groups of 6 animals selected so as to render uniform the distribution of their body weights and plasma lipid rates, determined before the experiment. The tested compounds were suspended in carboxymethylcellulose (Sigma C4888) and administered by intra-gastric tube feeding, once a day for 8 days at the chosen dosage. The animals had free access to food and water (standard diet). Taking of food and weight gain are recorded throughout the experiment. At the end of the experiment, the animals were anesthetized after a 4 hour fast, a blood sample was taken using (EDTA) anticoagulant, then the mice were weighed and euthanized. The plasma was prepared by centrifugation at 3000 rotations/minute for 20 minutes. The samples were kept at +4° C.
Plasma lipid concentrations (total cholesterol and triglycerides) are measured by enzymatic dosages (bioMérieux-Lyon-France) according to the provider's recommendations.
Plasma cholesterol and triglycerides rates are measured after 8 days of a per os treatment with the compounds according to the invention. These rates are compared with those obtained with control animals (not treated with compounds according to the invention).
Low-density lipoproteins (VLDL and LDL) are precipitated by Phosphotungstate. The precipitate is eliminated by centrifugation. HDL cholesterol present in the supernatant is measured by enzymatic dosages (bioMérieux-Lyon-France) in accordance with the provider's recommendations.

For `Cc1cc(CCC(=O)c2ccc(OC(F)(F)F)cc2)cc(C)c1OC(C)(C)C(=O)O` [Compound 1, 2-[2,6-dimethyl-4-[3-[4-(trifluoromethyloxy)phenyl]-3-oxo-propyl]phenoxy]-2-methyl-propanoic acid], the body weight gain (C57BI6 mouse) was “weight loss”, the “plasma HDL-cholesterol” value (C57BI6 mouse) was “very significantly increased” and the plasma triglycerides (C57BI6 mouse) was “very significantly diminished”. For the same compound, the body weight gain (ApoE2/E2 mouse) was “weight loss”, the “plasma HDL-cholesterol” value (ApoE2/E2 mouse) was “significantly increased” and the “plasma free fatty acids” value (ApoE2/E2 mouse) was “decreased very significantly”. The plasma total cholesterol (ApoE2/E2 mouse) was “significantly reduced” and the plasma triglycerides (ApoE2/E2 mouse) was “decreased very significantly”.
